Experimental data taken from patent US11014908B2, “Chemical compounds” (Pfizer Inc., priority 2018, dated 2021).

Tests used:
[1] = target: T1, purified sickle cell hemoglobin (HbS) (Homo sapiens, UniProt P68871+P69905, E7V); test: Binding affinity to purified HbS by Surface Plasmon Resonance (SPR); conditions: crosslinked biotinylated HbS, 1:1 binding model
T1 construct: HbS was obtained from the blood of homozygous S/S patients; from tissue; host or cells: red blood cells of homozygous S/S patients
Method in brief: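 Patient-derived HbS, purified and crosslinked between beta subunits (Lys82-Lys82), biotinylated and captured on streptavidin sensor at 4000–5000 RU. Running buffer 100 mM potassium phosphate pH 7.5, 1 mM EDTA, 0.1 mg/mL BSA, 1% DMSO; 2 min association, ≥5 min dissociation, ≥4 concentrations; Kd from 1:1 model fit.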

HbS = target: T2, HbS (Homo sapiens, UniProt P68871+P69905, E7V); test: HbS polymerization assay (delay time); format: biochemical; conditions: 0.15 mM HbS, n=3, vs DMSO; for Increase in DT for 25% HbS Occ: 0.075 mM compound
T2 construct: HbS was obtained from the blood of homozygous S/S patients; from tissue; host or cells: red blood cells of homozygous S/S patients
Source text: This assay is used to determine the degree of inhibition of polymerization of HbS by compounds of the invention at varying degrees of HbS occupancy. The method used for the assay was adapted from that described in He and Russell (He, Z. and J. E. Russell, “A high-Throughput Microplate Method for Assessing Aggregation of Deoxygenated Hemoglobin S Heterotetramers in Vitro”, Anal Biochem 306(2): 349-352 (2002)).
Purified HbS was exchanged into 1.25 M potassium phosphate, pH=7.4 and concentrated to 1.1 mM. The hemoglobin concentration was fixed at 0.15 mM, and the HbS was diluted to the appropriate concentration using 1.25 M potassium phosphate, pH=7.4. The compound of the invention was added to 0.15 mM HbS in the following concentrations: […], 0.075 mM (25%) and 0.15 mM (50%). As these compounds are ditopic binders, the concentration was doubled to calculate the % coverage, ie. 0.15*0.5=0.075*2=0.15. DMSO concentrations were matched for all compound concentrations, as well as no-compound control, and HbA. Following incubation, 33.5 μL of HbS solution was added to each well of a Costar 96-well half area plate. To induce deoxygenation, 16.5 μL of 1 M sodium dithionite, prepared in 1.25 M potassium phosphate, was added to each well for a final assay concentration of 330 mM, and mixed thoroughly. Fifty μL of mineral oil was overlaid over the solution in each well to prevent reoxygenation, and the plate was placed at 4° C. for five minutes. Following cold incubation, the plates were placed in a spectrophotometer that had been equilibrated at 37° C., to initiate the polymerization process (temperature jump). The reaction was monitored at 700 nm for 40 minutes, with data points collected every 30 seconds. Four wells were used for each condition, and the data averaged at every point for analysis. Data was analyzed using Graph Pad Prism, and the data was fit to a Boltzman sigmoidal equation, in which V50 (t1/2) was taken as the delay time. The percent change was calculated using the DMSO as the initial delay time. Error in percent change was compounded using the V50 errors generated when fit to the Boltzman sigmoidal equation.
Delay in HbS polymerization, as measured by increasing delay time as a function of % HbS occupancy (% HbS Occ), is reported in Table 5 below as the increase in delay time (DT) for 10%, 25% and 50% HbS occupancy (n=3).

Row | Structure (SMILES) | Kd [1] | Increase in DT for 25% HbS Occ (HbS) | Increase in DT for 10% HbS Occ (HbS; 0.03 mM compound) | Increase in DT for 50% HbS Occ (HbS; 0.15 mM compound)
1 | C[C@H](Oc1cc2cc(F)cc(F)c2nc1N)c1cc(C(=O)O)ccc1-n1cccn1 [Example 21, 3-{(1S)-1-[(2-amino-6,8-difluoroquinolin-3-yl)oxy]ethyl}-4-(1H-pyrazol-1-yl)benzoic Acid] | 37 nM | 64 ± 6% | – | –
2 | C[C@H](Oc1cc2cc(F)ccc2nc1N)c1nc(O)ccc1-n1cccn1 [Example 58, 6-{(1S)-1-[(2-amino-6-fluoroquinolin-3-yl)oxy]ethyl}-5-(1H-pyrazol-1-yl)pyridin-2-ol] | 34 nM | 70 ± 8% | 18 ± 5% | 74 ± 21%
